Converted amounts (≈) assume the structure as drawn.
Test: physchem
Format: physicochemical
Method: Different solvent compositions with different properties that are commonly used as a basis for pharmaceutical compositions were added to known quantities of the indicated compound and mixed. If a clear solution was not obtained, additional solvent was added and the solution mixed. […] For example “50-100” would indicate that the compound was not soluble at 100 mg/mL but upon additional solvent to have a final concentration of 50 mg/mL, the compound was soluble.

[1] = Solubility (mg/mL) at Ambient Temperature, 30% PEG 400
[2] = Solubility (mg/mL) at Ambient Temperature, 50% EtOH/water
[3] = Solubility (mg/mL) at Ambient Temperature, Water
[4] = pH 2.3, Solubility (mg/mL) at Ambient Temperature, 10% Tween 80 pH 2.3-2.8
[5] = pH 2.7, Solubility (mg/mL) at Ambient Temperature, 50% propylene glycol, pH 2.7
[6] = pH 4.5, Solubility (mg/mL) at Ambient Temperature, 10% Tween 80 pH 4.5-5.0
[7] = pH 5.5, Solubility (mg/mL) at Ambient Temperature, 10% Tween 80 pH 5.5-6.0

| solubility [1] [mg/mL] | solubility [2] [mg/mL] | solubility [3] [mg/mL] | solubility [4] [mg/mL] | solubility [5] [mg/mL] | solubility [6] [mg/mL] | solubility [7] [mg/mL] | SMILES | solubility characteristics compared to the other compounds (in words) |
| --- | --- | --- | --- | --- | --- | --- | --- | --- |
| > 35 | > 100 | 50 to 100 (≈ 27.7 to 55.4 mM) | > 100 | > 100 | > 50 | 50 to 100 (≈ 27.7 to 55.4 mM) | CCCCCCCCCCCCCCCCNC(=O)CN(CC(N)=O)C(=O)CCCCCNC(=O)[C@H](Cc1c[nH]c2ccccc12)NC(=O)[C@H](CCCNC(=N)N)NC(=O)[C@H](CSSC)NC(=O)[C@H](CCCNC(=N)N)NC(=O)[C@@H]1CCCN(C(=O)[C@@H](NC(=O)[C@H](Cc2c[nH]cn2)NC(=O)[C@@H](NC(=O)CNCC(=O)O)[C@@H](C)O)C(c2ccccc2)c2ccccc2)C1 [Compound 7] | – |
| 25 to 35 (≈ 13.9 to 19.4 mM) | > 100 | 50 to 100 (≈ 27.7 to 55.4 mM) | 40 to 70 (≈ 22.2 to 38.8 mM) | 30 to 50 (≈ 16.6 to 27.7 mM) | > 50 | 50 to 100 (≈ 27.7 to 55.4 mM) | CCCCCCCCCCCCCCCCNC(=O)CN(CC(N)=O)C(=O)CCCCCNC(=O)[C@H](Cc1c[nH]c2ccccc12)NC(=O)[C@H](CCCNC(=N)N)NC(=O)[C@H](CSSC)NC(=O)[C@H](CCCNC(=N)N)NC(=O)C1CCN(C(=O)[C@@H](NC(=O)[C@H](Cc2c[nH]cn2)NC(=O)[C@@H](NC(=O)CNCC(=O)O)[C@@H](C)O)C(c2ccccc2)c2ccccc2)CC1 [Compound 8] | – |
| 20 to 35 (≈ 10.5 to 18.4 mM) | > 100 | 50 to 100 (≈ 26.3 to 52.5 mM) | 30 to 50 (≈ 15.8 to 26.3 mM) | 30 to 50 (≈ 15.8 to 26.3 mM) | 25 to 50 (≈ 13.1 to 26.3 mM) | 25 to 35 (≈ 13.1 to 18.4 mM) | CCCCCCCCCCCCCCCCNC(=O)CN(CC(N)=O)C(=O)CCCCCNC(=O)[C@H](Cc1c[nH]c2ccccc12)NC(=O)[C@H](CCCNC(=N)N)NC(=O)[C@H](CSSC)NC(=O)[C@H](CCCNC(=N)N)NC(=O)C[C@@H]1CCCN1C(=O)[C@@H](NC(=O)[C@H](Cc1c[nH]cn1)NC(=O)[C@@H](NC(=O)CN(CC(=O)O)C(=O)CNC(C)=O)[C@@H](C)O)C(c1ccccc1)c1ccccc1 [Compound 9] | – |
| < 10 | < 10 | < 25 | 15 to 20 (≈ 8.5 to 11.3 mM) | < 20 | < 10 | < 10 | CCCCCCCCCCCCCCCCNC(=O)CN(CC(N)=O)C(=O)CCCCCNC(=O)[C@H](Cc1c[nH]c2ccccc12)NC(=O)[C@H](CCCNC(=N)N)NC(=O)[C@H](CSSC)NC(=O)[C@H](CCCNC(=N)N)NC(=O)CCNC(=O)[C@@H](NC(=O)[C@H](Cc1c[nH]cn1)NC(=O)[C@@H](NC(=O)CNCC(=O)O)[C@@H](C)O)C(c1ccccc1)c1ccccc1 [Compound 10] | does not improve solubility characteristics |
